Reference: patent publication US20240294551A1 (AMGEN INC., priority 2022, published 2024)
Where two headings read alike, the source gives them in different places.

What was measured:
[1] = molecular target: His-tagged KRAS G12D protein (Homo sapiens (Human), UniProt P01116, G12D); test: KRAS G12D TR-FRET Assay; type: binding; settings: read-out: KRAS G12D Binding IC50
In short: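 His-tagged KRAS G12D (diluted to 20 nM in pH 7.4 HEPES buffer with 10 mM MgCl2 and 10 μM GDP) was preincubated with titrated compound for 30 min at room temperature. Biotinylated KRPep-2d peptide (diluted to 20 nM) was then added for 1 h, and displacement was monitored by TR-FRET.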

[2] = molecular target: GDP-bound KRAS protein (aa 1-169), containing both G12D and C118A amino acid substitutions (Homo sapiens (Human), UniProt P01116, C118A/G12D); test: KRAS G12D Coupled Nucleotide Exchange Assay; type: biochemical; settings: read-out: KRAS G12D Coupled Exchange IC50
[3] = test system: Phosphorylation of ERK1/2 in AsPC-1 cells; test: Phospho-ERK1/2 MSD Assay; type: cell-based, human; settings: Homo sapiens, ASPC1, 2 h, read-out: 2 h p-ERK (AsPC-1 cells), IC50
In short: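 Read-out: MSD electrochemiluminescent detection of phosphorylated ERK1/2 in whole-cell lysates, fitted to a 4-parameter logistic curve for IC50. Prior to lysis, AsPC-1 cells (25,000 per well) received a 2 h compound dose-response at 37 °C.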

[4] = test system: AsPC-1 cells; test: AsPC-1 CTG Assay (CellTiter-Glo cell viability); type: cell-based, human; settings: Homo sapiens, ASPC1, 72 h, AsPC-1, 72 h; first value of the cell; read-out: G12D/C/V Cell Proliferation CTG (72 h) AsPC-1
In short: (§1)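 Human pancreatic AsPC-1 or colon SW620 cells in RPMI 1640 with 10% FBS, seeded overnight, then exposed to serially diluted compound for 72 h at 37 °C. CellTiter-Glo luminescence normalized to DMSO control; IC50 from a 4-parameter logistic model.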

[5] = test system: SW620 cells; test: SW620 CTG Assay (CellTiter-Glo cell viability); type: cell-based, human; settings: Homo sapiens, SW-620; SW620, 72 h; third value of the cell; read-out: G12D/C/V Cell Proliferation CTG (72 h) SW620
In short: as §1

[6] = test system: MIA PaCa-2 cells; test: MIA PaCa-2 CTG Assay (CellTiter-Glo cell viability); type: cell-based, human; settings: Homo sapiens; Mia PaCa-2, 72 h; second value of the cell; read-out: G12D/C/V Cell Proliferation CTG (72 h) Mia PaCa-2
In short: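 Human pancreatic carcinoma cells in RPMI 1640 with 10% FBS, seeded at 1.67E+04 cells/mL and left overnight, were treated with serially diluted compound for 72 h at 37° C, 5% CO2. Viability was read by CellTiter-Glo luminescence normalized to DMSO; IC50 came from a 4-parameter logistic fit.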

[7] = test system: p-ERK in PANC 04.03 tumor-bearing mice; test: Tumor Pharmacodynamic Assay (p-ERK inhibition in PANC 04.03 tumors); type: in vivo; settings: Mus musculus; PANC 04.03 tumor-bearing female athymic nude mice; single oral dose 100 mg/kg; tumors harvested 2 hr later; relative to vehicle group
Method: Tumor Pharmacodynamic Assays
Inhibitor pharmacodynamic effects were assessed in PANC 04.03 tumor-bearing mice. PANC 04.03 tumor cells (5.0E+06 cells) were injected subcutaneously into the flank of female athymic nude mice in a mixture with Matrigel (BD Bioscience). Mice received a single oral dose of either vehicle or inhibitor (100 mg/kg) when the average tumor size reached -300-600 mm^3 (n=3/group) and harvested 2 hours later. Tumor samples were collected, snap frozen, and processed for analysis by pulverizing with a cryoPREP® Dry Impactor (Covaris). Pulverized samples were resuspended in RIPA lysis buffer containing protease and phosphatase inhibitors and homogenized. Cleared lysates were analyzed using phospho-ERK1/2 and total ERK1/2 whole cell lysate kits (Meso Scale Discovery) according to the manufacturer's protocol. Phospho-ERK1/2 signal was normalized to total ERK1/2 signal for a given sample, and percent inhibition of p-ERK was calculated relative to the vehicle group.

Chain of His-tagged KRAS G12D protein (P01116 other isoform, or with tags, fused parts or gaps G12D): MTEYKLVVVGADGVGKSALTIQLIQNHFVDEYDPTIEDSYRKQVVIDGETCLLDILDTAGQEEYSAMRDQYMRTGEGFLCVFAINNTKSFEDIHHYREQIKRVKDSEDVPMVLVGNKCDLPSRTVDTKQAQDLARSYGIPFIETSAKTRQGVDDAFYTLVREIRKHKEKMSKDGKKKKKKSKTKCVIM
Chain of GDP-bound KRAS protein (aa 1-169), containing both G12D and C118A amino acid substitutions (P01116 other isoform, or with tags, fused parts or gaps G12D/C118A): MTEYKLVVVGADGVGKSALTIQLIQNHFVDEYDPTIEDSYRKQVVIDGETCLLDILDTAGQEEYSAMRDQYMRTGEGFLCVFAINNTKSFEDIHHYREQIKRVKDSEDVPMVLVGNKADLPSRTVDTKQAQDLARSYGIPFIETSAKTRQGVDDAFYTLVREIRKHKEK

Row | Structure (SMILES) | ring closure, yield after HPLC (from COCOc1cc(-c2ncc3c(N4CCC[C@@](C)(N)C4)nc(OC)nc3c2F)c2c(CCCC(=O)O)c(F)ccc2c1, amide bond, 16-membered ring, HATU/DIEA, then HCl/dioxane, DMF, 8.3 mM, 25.0 °C, 2 steps) [%] | ring closure, yield after HPLC (from CSc1nc(N2CCC[C@@](C)(N)C2)c2cnc(-c3cc(O)cc4ccc(F)c(CCCC(=O)O)c34)c(C)c2n1, amide bond, 16-membered ring, HATU, then Me2NH, DCM/DMA/DMF, 5.6 mM, 25.0 °C, 4.0 h) [%] | ring closure, yield after HPLC (from Fc1c(-c2c(CCCCOC3CC4(CCCNC4)C3)c(Cl)cc3[nH]ncc23)ncc2c(OCC(F)(F)F)nc(OC[C@@]34CCCN3C[C@H](F)C4)nc12, snar bond, 17-membered ring, Cs2CO3, MeCN/DMF, 5.0 mM, 80.0 °C) [%] | IC50 [1] [nM] | IC50 [2] [nM] | IC50 [3] [nM] | IC50 [4] [nM] | IC50 [5] [nM] | IC50 [6] [nM] | inhibition in vivo at 100 mg/kg [7] [%] | ring closure, yield after HPLC (from N[C@@H]1CCCN(c2nc(OC[C@@]34CCCN3C[C@H](F)C4)nc3c(F)c(-c4cc(O)cc5cccc(CCCC(=O)O)c45)ncc23)C1, amide bond, 16-membered ring, HATU/DIEA, then NH3/MeOH, DMF, 8.9 mM, 25.0 °C, 1.0 h) [%] | ring closure, yield after HPLC (from C[C@@]1(N)CCCN(c2nc(OC[C@@]34CCCN3C[C@H](F)C4)nc3c(F)c(-c4cccc5c4N(CCCC(=O)O)CCC5)ncc23)C1, amide bond, 16-membered ring, HATU/TEA, DCM/THF/DMA, 0.98 mM, 25.0 °C) [%]
1 | COCOc1cc2c3c(c(F)ccc3c1)CCCC(=O)N[C@]1(C)CCCN(C1)c1nc(OC)nc3c(F)c-2ncc13 | 5 |  |  |  |  |  |  |  |  |  |  | 
2 | CSc1nc2c3cnc(c(C)c3n1)-c1cc(O)cc3ccc(F)c(c13)CCCC(=O)N[C@]1(C)CCCN2C1 |  | 32 |  |  |  |  |  |  |  |  |  | 
3 | Fc1c2ncc3c(nc(OC[C@@]45CCCN4C[C@H](F)C5)nc13)N1CCCC3(CC(C3)OCCCCc3c(Cl)cc4[nH]ncc4c3-2)C1 |  |  | 5 |  |  |  |  |  |  |  |  | 
4 | CN1CCC[C@H]1COc1nc2c3cnc(c(F)c3n1)-c1c(c(Cl)cc3[nH]ncc13)CCOC(=O)O[C@H]1C[C@]3(CCCN2C3)C1 (single isomer, unassigned) [Example 212] |  |  |  | 4 | 3 | 5.3 | 79 | 20 | 24 | 85 |  | 
5 | O=C1CCCc2cccc3cc(O)cc(c23)-c2ncc3c(nc(OC[C@@]45CCCN4C[C@H](F)C5)nc3c2F)N2CCC[C@H](C2)N1 [Example 1, (15R)-31-Fluoro-8-(((2R,7aS)-2-fluorotetrahydro-1H-pyrrolo[1,2-a]pyrrol-7a(5H)-yl)methoxy)-27-hydroxy-3,7,9,11,16-pentaazahexacyclo[19.7.1.1˜2,6˜.1˜11,15˜.0˜5,10˜.0˜25,29˜]hentriaconta-1(28),2(31),3,5,7,9,21,23,25(29),26-decaen-17-one bis(2,2,2-trifluoroacetate)] |  |  |  | 5 | 4 | 196 | 1930 |  |  |  | 7 | 
6 | C[C@@]12CCCN(C1)c1nc(OC[C@@]34CCCN3C[C@H](F)C4)nc3c(F)c(ncc13)-c1cccc3c1N(CCCC(=O)N2)CCC3 [Example 13, (15R)-31-Fluoro-8-(((2R,7aS)-2-fluorotetrahydro-1H-pyrrolo[1,2-a]pyrrol-7a(5H)-yl)methoxy)-15-methyl-3,7,9,11,16,21-hexaazahexacyclo[19.7.1.1˜2,6˜.1˜11,15˜.0˜5,10˜.0˜25,29˜]hentriaconta-1(29),2(31),3,5,7,9,25,27-octaen-17-one bis(2,2,2-trifluoroacetate)] |  |  |  | 238 | 342 |  |  |  |  |  |  | 33
7 | Cc1cc2[nH]ncc2c2c1CCCOC(=O)O[C@@H]1COCCN(C1)c1nc(OC[C@@]34CCCN3C[C@H](F)C4)nc3c(F)c-2ncc13 [Example 97, (26S)-32-fluoro-4-(((2R,7aS)-2-fluorotetrahydro-1H-pyrrolo[1,2-a]pyrrol-7a(5H)-yl)methoxy)-18-methyl-23,25,28-trioxa-1,3,5,9,14,15-hexaazahexacyclo[24.4.1.1~6,10~.0~2,7~.0~11,19~.0~12,16~]dotriaconta-2,4,6,8,10(32),11,13,16,18-nonaen-24-one] |  |  |  | 2 | 1 | 9 | 80 | 20.8 | 20 | 85 |  | 
8 | O=C1OCCCc2c(Cl)cc3[nH]ncc3c2-c2ncc3c(nc(OC[C@@]45CCCN4C[C@H](F)C5)nc3c2F)N2CCOC[C@H](C2)O1 [Example 99, (26S)-18-Chloro-32-fluoro-4-(((2R,7aS)-2-fluorotetrahydro-1H-pyrrolo[1,2-a]pyrrol-7a(5H)-yl)methoxy)-23,25,28-trioxa-1,3,5,9,14,15-hexaazahexacyclo[24.4.1.1˜6,10˜.0˜2,7˜.0˜11,19˜.0˜12,16˜]dotriaconta-2,4,6,8,10(32),11,13,16,18-nonaen-24-one] |  |  |  | 3 | 2 | 2 | 30 | 10 | 1 | 91 |  | 
9 | Cc1cc2[nH]ncc2c2c1CCCOC(=O)O[C@]1(C)COCCN(C1)c1nc(OC[C@@]34CCCN3C[C@H](F)C4)nc3c(F)c-2ncc13 [Example 190, (26S)-32-fluoro-4-(((2R,7aS)-2-fluorotetrahydro-1H-pyrrolo[1,2-a]pyrrol-7a(5H)-yl)methoxy)-18,26-dimethyl-23,25,28-trioxa-1,3,5,9,14,15-hexaazahexacyclo[24.4.1.1~6,10~.0~2,7~.0~11,19~.0~12,16~]dotriaconta-2,4,6,8,10(32),11,13,16,18-nonaen-24-one] |  |  |  | 4 | 2 | 4.5 | 5 | 4 | 4 | 86 |  | 
10 | C[C@@]12COCCN(C1)c1nc(OC[C@@]34CCCN3C[C@H](F)C4)nc3c(F)c(ncc13)-c1c(c(Cl)cc3[nH]ncc13)CCCOC(=O)O2 [Example 191, (26S)-18-chloro-32-fluoro-4-(((2R,7aS)-2-fluorotetrahydro-1H-pyrrolo[1,2-a]pyrrol-7a(5H)-yl)methoxy)-26-methyl-23,25,28-trioxa-1,3,5,9,14,15-hexaazahexacyclo[24.4.1.1~6,10~.0~2,7~.0~11,19~.0~12,16~]dotriaconta-2,4,6,8,10(32),11,13,16,18-nonaen-24-one] |  |  |  | 3 | 2 | 1.9 | 8 | 2 | 1 | 91 |  | 
11 | Cc1cc2[nH]ncc2c2c1CCOC(=O)O[C@H]1C[C@@]3(CCCN(C3)c3nc(OC[C@@]45CCCN4C[C@H](F)C5)nc4c(F)c-2ncc34)C1 [Example 194, (1S,3R)-32-fluoro-24-(((2R,7aS)-2-fluorotetrahydro-1H-pyrrolo[1,2-a]pyrrol-7a(5H)-yl)methoxy)-10-methyl-4,6-dioxa-13,14,19,23,25,27-hexaazaheptacyclo[25.3.1.1~1,3~.1~18,22~.0~9,17~.0~12,16~.0~21,26~]tritriaconta-9,11,14,16,18(32),19,21,23,25-nonaen-5-one] |  |  |  | 5 | 3 | 1.3 | 6 | 4 | 7 | 88 |  | 
12 | O=C1OCCc2c(Cl)cc3[nH]ncc3c2-c2ncc3c(nc(OC[C@@]45CCCN4C[C@H](F)C5)nc3c2F)N2CCC[C@]3(C2)C[C@H](C3)O1 [Example 249, (1S,3R)-10-chloro-32-fluoro-24-(((2R,7aS)-2-fluorotetrahydro-1H-pyrrolo[1,2-a]pyrrol-7a(5H)-yl)methoxy)-4,6-dioxa-13,14,19,23,25,27-hexaazaheptacyclo[25.3.1.1~1,3~.1~18,22~.0~9,17~.0~12,16~.0~21,26~]tritriaconta-9,11,14,16,18(32),19,21,23,25-nonaen-5-one] |  |  |  | 4 | 1 | 0.7 | 5 | 3 | 2 | 90 |  | 
